Measurements: ChEMBL document CHEMBL5120885, “Neopetrosins A-D and Haliclorensin D, Indole-C-Mannopyranosides and a Diamine Alkaloid Isolated from the South China Sea Marine Sponge Neopetrosia chaliniformis” (J Nat Prod, 2022)
Active and inactive are the calls of the source. No cut-off for these calls is given here.

Columns and labels:
Assay type in all cases: functional, organism-based
Danio rerio [1] = species: Danio rerio; assay: Hepatoprotective activity in isoniazid induced liver injury in transgenic zebrafish T3 (L- FABP:EGFP) model assessed as change in liver size at 50 uM incubated for 72 hrs by fluorescence microscopic analysis
Danio rerio [2] = species: Danio rerio; assay: Hepatoprotective activity in ethanol induced liver injury in transgenic zebrafish T3 (L- FABP:EGFP) model assessed as change in liver size at 50 uM incubated for 72 hrs by fluorescence microscopic analysis
Danio rerio [3] = species: Danio rerio; assay: Hepatoprotective activity in isoniazid induced liver injury in transgenic zebrafish T3 (L- FABP:EGFP) model assessed as change in liver size at 20 uM incubated for 72 hrs by fluorescence microscopic analysis
Danio rerio [4] = species: Danio rerio; assay: Hepatoprotective activity in ethanol induced liver injury in transgenic zebrafish T3 (L- FABP:EGFP) model assessed as change in liver size at 20 uM incubated for 72 hrs by fluorescence microscopic analysis

With `C[S+](CC[C@H](N)C(=O)[O-])C[C@H]1O[C@@H](n2cnc3c(N)ncnc32)[C@H](O)[C@@H]1O` (stereo partly drawn) the Activity (Danio rerio [1]) was “Active” and the Activity (Danio rerio [2]) was “Active”.

`NCC(=O)c1c([C@H]2O[C@H](CO)[C@@H](O)[C@H](O)[C@@H]2O)[nH]c2ccccc12` was tested, and the Activity (Danio rerio [3]) was “Active” and the Activity (Danio rerio [4]) was “Active”.

In the case of `O=C1O[C@H]2[C@@H](O)[C@H](O)[C@@H](CO)O[C@@H]2c2[nH]c3ccccc3c21`, the Activity (Danio rerio [3]) is reported as “Active” and the Activity (Danio rerio [4]) is reported as “Active”.

For `C[C@@H]1NC(=O)[C@H](Cc2c([C@H]3O[C@H](CO)[C@@H](O)[C@H](O)[C@@H]3O)[nH]c3ccccc23)NC1=O`, the Activity (Danio rerio [3]) was “Active” and the Activity (Danio rerio [4]) was “Active”.
